Test results published in patent publication US7863239B2, “Binding compounds, immunogenic compounds and peptidomimetics” (Pepscan Systems B.V., priority 2005, dated 2011).
“Also recorded” adds a separate entry of the source. *1 amine or outer side, *2 acyl side, *3 side chain or, on linkers, in order; H or OH if unused. Bridges are numbered along the chain shown (N, C = ends). Where no end group is shown, it is not given here. T4 = 1,2,4,5-tetrabromodurene scaffold; mXylylene = c1cc(C[*:1])cc(C[*:2])c1

Assays:
FSH = experiment: Vaccination of rats with FSH-derived peptides, antisera analyzed in FSH-binding ELISA; conditions: rat, in vivo
Procedure: Peptides were synthesized by solid-phase peptide synthesis using a 4-(2′,4′-dimethoxyphenyl-Fmoc-aminomethyl)-phenoxy (RinkAmide) resin (BACHEM, Germany) on a Syro-synthesizer (MultiSynTech, Germany). All amino acids were purchased and used as N-alpha-(Fmoc) protected with side-chain functionalities protected as N-t-Boc (KW), O-t-Bu (DESTY), N-Trt (HNQ), S-Trt (C), or N-Pbf (R) groups. A coupling protocol using a 6.5-fold excess of HBTU/HOBt/amino acid/DIPEA (1:1:1:2) in NMP with a 30 min. activation time using double couplings was employed. […] Subsequently, female Wistar rats were immunized on day 0 with 400 uL of a ˜2.5 mg/mL of the peptide or peptide-T-construct in PBS/CFA 1:1 (v/v) (PBS=Phosphate-Buffered Saline, CFA=Complete Freund's Adjuvance), followed by a booster (same quantity and concentration) at 4 weeks. Subsequently, the anti-peptide titers were determined after 6 weeks to check for immune response and finally the rats were bleeded after 8 weeks and the antisera collected. Antisera were analyzed in an FSH-binding ELISA (Greiner, PS; GDA-coating with 1 μg/mL of FSH (Biotrend)) using 2,2′-azine-di(ethylbenzthiazoline sulfonate) (ABTS) in combination with a peroxidase-labeled Goat-anti-rat serum as second antibody. […]

anti-CCR5 antibody 2D7 = experiment: Screening of peptide microarrays with anti-CCR5 antibody 2D7; assay type: binding; conditions: absorbance at 405 nm measured using a CCD-camera; for 2D7 (0.1 μg/ml): mAb 2D7 at 0.1 μg/ml on peptide microarray; for 2D7 (1 μg/ml): mAb 2D7 at 1 μg/ml on peptide microarray; for 2D7 (10 μg/ml): mAb 2D7 at 10 μg/ml on peptide microarray
Procedure: Grafting of the polypropylene support with polyacrylic acid was performed by irradiating the support in a 6% acrylic acid solution containing CUS04 using gamma radiation at a dose of 12 kGy. The grafted solid support containing carboxylic acid groups was subsequently reacted with t-butyloxycarbonyl-hexamethylenediamine (Boc-HMDA) using dicyclohexylcarbodiimide (DCC) with N-hydroxybenzotriazole (HOBt) and subsequent cleavage of the Boc-groups using trifluoroacetic acid (TFA). The peptides were synthesized using standard Fmoc-chemistry and, after acylation, deprotected by reaction with TFA (15 ml/g resin) containing 13.3% (w) phenol, 5% (v) thioanisole, 2.5% (v) 1,2-ethanedithiol, and 5% (v) milliQ-H2O for 2-4 hrs at RT. After washing 3× with H2O, the peptide microarrays were treated with excess of a 1.0 mM solution of either mP2 or T3 in 20 mM amm. bicarbonate (pH 7.8)/acetonitril (1:1 v/v) for 30-60 min. at room temperature, followed by 3× washing with 50% ACN/H2O. Then, the microarrays were washed with excess of millipore H2O and sonicated in disrupt-buffer (1% SDS/0.1% β-mercaptoethanol (BME) in phosphate buffered saline (PBS), pH 7.2) at 70° C. for 30 min. followed by sonication in millipore H2O for another 45 min. Synthese Van Scaffolds: The scaffolds are commercially available by Aldrich. Screening of Micro-Arrays with Antibodies Microarrays were pretreated with PBS for 30 min. followed by precoating with incubation buffer (PBS containing 5% ovalbumin, 5% horse serum and 1% Tween-80) for 1 hour. Then, the microarrays were incubated with mAb (typically 1/1000, diluted in incubation buffer) overnight at 4° C. After washing (3×10 min.) with PBS/Tween-80 (0.05%), the peptides were incubated with peroxidase labeled rabbit anti-mouse antibody for 1 hr at 25° C. (rampo, 1/1000; Dako, Glostrup, Denmark) and subsequently, after washing again (3×10 min.) with PBS/Tween-80 (0.05%), incubated with the peroxidase substrate 2,2′-azino-di-3-ethylbenzthiazoline sulfonate (ABTS; 50 mg in 100 ml 0.1M citric acid-sodium phosphate (McIlvaine) buffer (pH 4.0) containing 20 ul 30% H2O2). After 1 h the absorbance (at 405 nm) was measured using a CCD-camera (XC-77RR, Sony, Japan). Bound mAb was removed by sonication in disrupt-buffer as described above. The micro-arrays were re-used for screening approximately 10-15 times. CCR5 CCR5 is a […] co-receptor that is used by HIV for cellular entry. Antibodies specifically directed against CCR5 would therefore be suitable for counteracting cellular entry by HIV. However, immunization with whole CCR5 is problematic since CCR5 is a transmembrane protein. In order to be capable of eliciting CCR5-specific antibodies, immunogenic compounds based on CCR5 are therefore desired. In order to design suitable test compounds, 4 CCR5 sequences were taken into account: one N-terminus domain (Nt) and three extracellular loop domains extended with about 1-6 adjacent amino acid residues of the transmembrane domains (N-terminally as well as C-terminally). These extracellular loop domains are called e1, e2 and e3. The primary sequences of the considered domains are as follows (starting N-terminally):
In the first series of peptides (first row of the above Table), the C-terminal amino acids K, I, N, V, K, Q, I, and A of the Nt sequence were selected. Subsequently, N-terminal flanking sequences with a length of 21 amino acid residues were selected. […] Subsequently, peptides were produced containing one of these flanking sequences. Likewise, in the second series of peptides (second row of the above Table), the C-terminal amino acids P, C, Q, K, I, N, V and K of the Nt sequence were selected. Subsequently, N-terminal flanking sequences with a length of 18 amino acid residues were selected. […] Subsequently, peptides were produced containing one of these flanking sequences. […]

Substance | immune response against native FSH in rats (in words) (FSH) | immune response against native FSH in rats (in words) (FSH; listed as TFKELVYETCRVPGAAHHADSLCTYPVATQAH cyclized onto m-T2) | 2D7 (0.1 μg/ml) (anti-CCR5 antibody 2D7) | 2D7 (1 μg/ml) (anti-CCR5 antibody 2D7) | 2D7 (10 μg/ml) (anti-CCR5 antibody 2D7)
*KIQKTATFKELVYETCRVPGAAHHADSLCTYPVATQAHAGK# (SEQ ID NO: 120) T4 (KIQKTATFKELVYETCRVPGAAHHADSLCTYPVATQAHAGK-NH2; linker 16-29 via T4 (inferred)) [No. 9 (Table 4B), FSH-derived CLIPS peptide] | Good results | – | – | – | –
*TFKELVYETCRVPGAAHHADSLCTYPVATQAH# (SEQ ID NO: 119) + m-T2 (TFKELVYETCRVPGAAHHADSLCTYPVATQAH-NH2; linker 10-23 via mXylylene (inferred)) [No. 4 (Table 4B), FSH-derived CLIPS peptide] | – | production of antibodies that are reactive with native FSH; also recorded: very high antibody titre | – | – | –
CAQWDFGNCQKEGLHYTC (SEQ ID NO: 109) (not fully specified; bound to P2 or T3 scaffold) [compound 1158] | – | – | 132 | 416 | 2377
CFGNTMGGGRSQKEGLHYTC (SEQ ID NO: 108) (not fully specified; bound to P2 or T3 scaffold) [compound 719] | – | – | 113 | 678 | 2819
CNTMGGGRSQKEGLHYTC (SEQ ID NO: 106) (not fully specified; bound to P2 or T3 scaffold) [compound 702] | – | – | 68 | 1580 | 2787
CQKEGLHYC (SEQ ID NO: 102) (not fully specified; bound to P2 or T3 scaffold) [compound 443] | – | – | 148 | 2636 | 3090
CQKEGLHYTC (SEQ ID NO: 101) (not fully specified; bound to P2 or T3 scaffold) [compound 447] | – | – | 261 | 2706 | 2943
CQWDFGNTCQKEGLHYTC (SEQ ID NO: 107) (not fully specified; bound to P2 or T3 scaffold) [compound 1159] | – | – | 213 | 1153 | 2636
CRSQKEGLHYTC (SEQ ID NO: 105) [compound 450] | – | – | 107 | 2364 | 2852
CSQKEGLHYTC (SEQ ID NO: 103) (not fully specified; bound to P2 or T3 scaffold) [compound 449] | – | – | 99 | 2606 | 2889
CWDFGNTMCQKEGLHYTC (SEQ ID NO: 104) (not fully specified; bound to P2 or T3 scaffold) [compound 1160] | – | – | 315 | 2469 | 2765
